The values below come from PMC3758303 (PLoS ONE, 2013).

One data set relates to Plasmodium falciparum. Also on record: method as in PMID 11428929, PMID 17273878, PMID 12723958. Conditions: cited from earlier work.
The test system of the next data set is HCV-RNA in ORL8 cells. The data set is described as follows: Curing of ORL8 cells by N-89 treatment (G418 selection, Western blot). The class given is cell-based, hepatitis C virus. Conditions: 1 µM, 3 weeks, addition at 4-day intervals, absence of G418. On the procedure:
(§1) To date, IFN-α alone or IFN-γ alone has generally been used to prepare cured cells from the cells harboring HCV-RNA [36]. Since we observed strong anti-HCV activity (>99% suppression) at 8 µM of N-89 in OR6 cells or 1 µM of N-89 in ORL8 cells without a decrease in cell viability (Fig. 1B), we expected that these cells might be cured only by treatment with N-89. Accordingly, OR6 and ORL8 cells were treated with 8 µM and 1 µM of N-89, respectively, in the absence of G418. The treatment was continued for 3 weeks with the addition of N-89 at 4-day intervals.
(§2) Figure 3 OR6 and ORL8 cells were cured by treatment with only N-89. The treated cells were divided into two plates with or without G418, and then cultured for 2 weeks. The left panels show the cells stained with Coomassie brilliant blue. The right panels show the results of Western blot analysis of the treated and non-treated cells for HCV proteins. Western blot analysis was performed as described in Fig. 1B.
In general terms: A western blot detects proteins with antibodies after separation by electrophoresis.

For the next data set, the system named is mice. Also on record: method as in PMID 11428929, PMID 17273878, PMID 12723958. The conditions noted are these: cited from earlier work.
A further data set deals with Plasmodium berghei. Also on record: method as in PMID 11428929, PMID 17273878, PMID 12723958. Conditions: cited from earlier work.
For the next data set, the system named is HCV-RNA in OR6 cells. The data set is described as follows: Curing of OR6 cells by N-89 treatment (G418 selection, Western blot). It counts as cell-based, hepatitis C virus. The conditions noted are these: 8 µM, 3 weeks, addition at 4-day intervals, absence of G418. On the procedure:
as §1, §2

A further data set deals with rats. Set-up: method as in PMID 11428929, PMID 17273878, PMID 12723958. The conditions noted are these: cited from earlier work.
For data set [1], the system named is HCV-RNA replication in ORL8 cells. The data set is described as follows: Comparative time course RL assay in ORL8 cells. The class given is cell-based, hepatitis C virus. The method, then: We next performed a time course assay (2 to 72 hrs after treatment) in the case of ORL8 cells treated with N-89 (0.1 µM or 1 µM) or IFN-α (1 IU/ml; corresponding to approximately EC80). ORL8 cells treated with IFN-α (1 IU/ml) and N-89 (1 µM) had almost the same anti-HCV kinetics over the first […] after treatment (upper panel of Fig. 4); however, within the first 12 hrs after treatment N-89-treated ORL8 cells had more rapid anti-HCV kinetics than did the IFN-α-treated cells (lower panel of Fig. 4).
Figure 4 The anti-HCV action of N-89 was faster than that of IFN-α. The ORL8 cells were treated with N-89 or IFN-α, and then RL assays were performed at 2 to 72 hrs after the treatment. The relative value (%) calculated at each time point, when the luciferase activity of non-treated cells at 24 hrs was assigned as 100%, is shown. Data are expressed as the means±standard deviation of triplicate assays. […] To evaluate this possibility, we examined the effect of VE on N-89 at the EC90 level in the ORL8 assay. […] Similar results were obtained by using N-251 (Fig. 5C and D). […] However, an antimalarial drug, artemisinin, was hardly influenced by co-treatment with VE (Fig. 5E). The value (1.9) of artemisinin was almost the same as that (3.5 or 2.5) of IFN-α or the control, respectively (Fig. 5F).

The test system of a further data set is RSc-JRN/35B cells. Put plainly: Viability of RSc-JRN/35B cells (WST-1, trypan blue cell counting). It counts as cell-based, human. The conditions noted are these: 10 µM. The method, then: (§3) The WST-1 cell proliferation assay was performed as described previously. Briefly, The cells were plated onto 96-well plates (1×10^3 cells per well) in triplicate and then treated with each reagent at several concentrations for 72 hrs. After treatment, the cells were subjected to the WST-1 cell proliferation assay (Takara Bio, Otsu, Japan) according to the manufacturer’s protocol. This assay is based on the enzymatic cleavage of the tetrazolium salt WST-1 to formazan by cellular mitochondrial dehydrogenases present in viable cells. Therefore, there are […] the value of the WST-1 assay becomes zero. The experiments were performed at least in triplicate. From the assay results, the 50% cytotoxic concentration (CC50) of each reagent was determined.
(§4) We next examined whether N-89 and N-251 worked in an HCV production system using HCV-JFH-1 strain (genotype 2a). […] To clarify whether anti-HCV activity depends on the difference of genotype or assay model, we evaluated the activities of N-89 and N-251 using RSc-JRN/35B [Ikeda et al., submitted] cells harboring a subgenomic HCV-JFH-1 replicon as an additional assay.

Experiment in data set [2]: as above
It counts as cell-based, human. The conditions noted are these: human, read-out: viable cells by cell counting after trypan blue dye treatment. On the procedure: as §3, §4

Another data set relates to malaria parasites. Set-up: method as in PMID 21501696, PMID 21924377. The conditions noted are these: compared with N-89; cited from earlier work.

With `C1CCCCCC2(CCCCC1)OOCCCOO2` [N-89, 1,2,6,7-Tetraoxaspiro[7.11]nonadecane], the “antimalarial activity in vitro” value in the data set with Plasmodium falciparum is “potent antimalarial activity”. Moreover, the “curing of HCV-RNA-replicating cells” value in the data set on HCV-RNA in ORL8 cells and in the data set on HCV-RNA in OR6 cells was “cured” each time. Also, the 50% lethal dose with mice and in the data set with rats was over 2000 mg/kg in each case. Further, the “antimalarial activity in vivo” value in the data set on Plasmodium berghei is “potent antimalarial activity”. Besides, the figures for the “time after treatment at which RL activity was significantly decreased” value in data set [1] (0.1 µM) and in data set [1] (1 µM) were 9 h and 6 h, respectively.

On to `OCCCCCCC1COOC2(CCCCCCCCCCC2)OOC1` [N-251, 6-(1,2,6,7-tetraoxaspiro[7.11]nonadec-4-yl)hexan-1-ol], for which the “relative value of WST-1” value with RSc-JRN/35B cells is given as “almost became zero”. Besides, in data set [2], the viability at 10 µM was about 30%. Also, the “potency against malaria parasites” value in the data set with malaria parasites is listed as “as potent as N-89”.
